Reference: ChEMBL document CHEMBL1201861, “Genomics of Drug Sensitity in Cancer screening data, Wellcome Trust Sanger Institute”

Experiments:
[1] = tested on: MEL-JUSO; experiment: cells; type: functional, cell-based; details: Homo sapiens;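 note: growth inhibition of human MEL-JUSO cells, read out with a cell viability assay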
Description: SANGER: Inhibition of human MEL-JUSO cell growth in a cell viability assay.

[2] = tested on: HSC-2; experiment: cells; type: functional, cell-based; details: Homo sapiens;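 note: growth inhibition of human HSC-2 cells, read out by a cell viability assay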
Description: SANGER: Inhibition of human HSC-2 cell growth in a cell viability assay.

[3] = tested on: NCI-H2141; experiment: cells; type: functional, cell-based, Homo sapiens; details: Homo sapiens, NCI-H2141;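 note: growth inhibition of human NCI-H2141 cells, read out with a cell viability assay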
Description: SANGER: Inhibition of human NCI-H2141 cell growth in a cell viability assay.

[4] = tested on: UMC-11; experiment: cells; type: functional, cell-based; details: Homo sapiens;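 note: growth inhibition of UMC-11 cells, read out with a cell viability assay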
Description: SANGER: Inhibition of human UMC-11 cell growth in a cell viability assay.

[5] = tested on: OE19; experiment: cells; type: functional, cell-based; details: Homo sapiens;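 note: growth inhibition of OE19 cells, measured through a cell viability read-out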
Description: SANGER: Inhibition of human OE19 cell growth in a cell viability assay.

[6] = tested on: SW780; experiment: cells; type: functional, cell-based; details: Homo sapiens;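 note: growth inhibition of the cells, read out with a cell viability assay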
Description: SANGER: Inhibition of human SW780 cell growth in a cell viability assay.

[7] = tested on: NCI-H1417; experiment: cells; type: functional, cell-based, Homo sapiens; details: Homo sapiens, NCI-H1417;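 note: human NCI-H1417 cells, growth inhibition determined with a cell viability readout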
Description: SANGER: Inhibition of human NCI-H1417 cell growth in a cell viability assay.

[8] = tested on: PC-3; experiment: cells; type: functional, cell-based; details: Homo sapiens;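 note: cell viability assay measuring growth inhibition of PC-3 cells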
Description: SANGER: Inhibition of human PC-3 cell growth in a cell viability assay.

[9] = tested on: NCI-H1437; experiment: cells; type: functional, cell-based; details: Homo sapiens;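 note: growth inhibition of human NCI-H1437 cells, read out by a cell viability assay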
Description: SANGER: Inhibition of human NCI-H1437 cell growth in a cell viability assay.

[10] = tested on: BHT-101; experiment: cells; type: functional, cell-based; details: Homo sapiens
Description: SANGER: Inhibition of human BHT-101 cell growth in a cell viability assay.

[11] = tested on: NUGC-3; experiment: cells; type: functional, cell-based; details: Homo sapiens;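 note: growth inhibition of human NUGC-3 cells, read out with a cell viability assay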
Description: SANGER: Inhibition of human NUGC-3 cell growth in a cell viability assay.

[12] = tested on: KYSE-410; experiment: cells; type: functional, cell-based; details: Homo sapiens;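 note: growth inhibition of KYSE-410 cells, measured through a cell viability readout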
Description: SANGER: Inhibition of human KYSE-410 cell growth in a cell viability assay.

[13] = tested on: 769-P; experiment: cells; type: functional, cell-based; details: Homo sapiens
Description: SANGER: Inhibition of human 769-P cell growth in a cell viability assay.

[14] = tested on: KU-19-19; experiment: cells; type: functional, cell-based; details: Homo sapiens
Description: SANGER: Inhibition of human KU-19-19 cell growth in a cell viability assay.

[15] = tested on: NCI-H522; experiment: cells; type: functional, cell-based; details: Homo sapiens;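 note: cell viability assay measuring growth inhibition of human NCI-H522 cells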
Description: SANGER: Inhibition of human NCI-H522 cell growth in a cell viability assay.

[16] = tested on: NALM-6; experiment: cells; type: functional, cell-based, Homo sapiens; details: Homo sapiens, NALM-6;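 note: growth inhibition of NALM-6 cells, read out with a cell viability assay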
Description: SANGER: Inhibition of human NALM-6 cell growth in a cell viability assay.

[17] = tested on: BPH-1; experiment: cells; type: functional, cell-based; details: Homo sapiens;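 note: cell viability assay measuring growth inhibition of human BPH-1 cells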
Description: SANGER: Inhibition of human BPH-1 cell growth in a cell viability assay.

[18] = tested on: COR-L279; experiment: SANGER: Inhibition of human COR-L279 cell growth in a cell viability assay.; type: functional, cell-based; details: Homo sapiens, COR-L279
[19] = tested on: TYK-nu; experiment: cells; type: functional, cell-based; details: Homo sapiens;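 note: growth inhibition of human TYK-nu cells, read out by a cell viability assay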
Description: SANGER: Inhibition of human TYK-nu cell growth in a cell viability assay.

[20] = tested on: BC-3; experiment: cells; type: functional, cell-based, Homo sapiens; details: Homo sapiens, BC-3;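 note: cell viability assay measuring growth inhibition of human BC-3 cells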
Description: SANGER: Inhibition of human BC-3 cell growth in a cell viability assay.

[21] = tested on: MKN-7; experiment: cells; type: functional, cell-based; details: Homo sapiens;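 note: growth inhibition of MKN-7 cells, read out with a cell viability assay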
Description: SANGER: Inhibition of human MKN7 cell growth in a cell viability assay.

[22] = tested on: SW626; experiment: cells; type: functional, cell-based; details: Homo sapiens;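 note: growth inhibition of SW626 cells, measured with a cell viability assay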
Description: SANGER: Inhibition of human SW626 cell growth in a cell viability assay.

[23] = tested on: DMS-79; experiment: cells; type: functional, cell-based, Homo sapiens; details: Homo sapiens, DMS-79
Description: SANGER: Inhibition of human DMS-79 cell growth in a cell viability assay.

[24] = tested on: NCI-H187; experiment: cells; type: functional, cell-based, Homo sapiens; details: Homo sapiens, NCI-H187;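 note: growth inhibition of NCI-H187 cells, read out as cell viability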
Description: SANGER: Inhibition of human NCI-H187 cell growth in a cell viability assay.

[25] = tested on: T84; experiment: cells; type: functional, cell-based; details: Homo sapiens;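 note: growth inhibition measured with a cell viability readout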
Description: SANGER: Inhibition of human T84 cell growth in a cell viability assay.

[26] = tested on: LC4-1; experiment: cells; type: functional, cell-based, Homo sapiens; details: Homo sapiens, LC4-1;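 note: growth inhibition of LC4-1 cells, read out with a cell viability assay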
Description: SANGER: Inhibition of human LC4-1 cell growth in a cell viability assay.

[27] = tested on: RD; experiment: cells; type: functional, cell-based; details: Homo sapiens
Description: SANGER: Inhibition of human RD cell growth in a cell viability assay.

[28] = tested on: SW837; experiment: cells; type: functional, cell-based; details: Homo sapiens;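 note: growth inhibition of SW837 cells, determined with a cell viability assay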
Description: SANGER: Inhibition of human SW837 cell growth in a cell viability assay.

[29] = tested on: Huh-7; experiment: cells; type: functional, cell-based; details: Homo sapiens;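 note: HuH-7 cell growth inhibition, read out with a cell viability assay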
Description: SANGER: Inhibition of human HuH-7 cell growth in a cell viability assay.

[30] = tested on: RMG-I; experiment: cells; type: functional, cell-based; details: Homo sapiens;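 note: growth inhibition of human RMG-I cells, read out with a cell viability assay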
Description: SANGER: Inhibition of human RMG-I cell growth in a cell viability assay.

[31] = tested on: OAW-28; experiment: cells; type: functional, cell-based; details: Homo sapiens;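 note: growth inhibition of OAW-28 cells, read out with a cell viability assay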
Description: SANGER: Inhibition of human OAW-28 cell growth in a cell viability assay.

[32] = tested on: WM-115; experiment: cells; type: functional, cell-based; details: Homo sapiens
Description: SANGER: Inhibition of human WM-115 cell growth in a cell viability assay.

[33] = tested on: OPM-2; experiment: cells; type: functional, cell-based, Homo sapiens; details: Homo sapiens, OPM-2;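 note: growth of OPM-2 cells measured with a viability assay, IC50 for suppression of proliferation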
Description: SANGER: Inhibition of human OPM-2 cell growth in a cell viability assay.

[34] = tested on: CAL-72; experiment: cells; type: functional, cell-based; details: Homo sapiens;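 note: cell viability assay measuring inhibition of proliferation in the CAL-72 cell line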
Description: SANGER: Inhibition of human CAL-72 cell growth in a cell viability assay.

[35] = tested on: MDA-MB-231; experiment: cells; type: functional, cell-based; details: Homo sapiens
Description: SANGER: Inhibition of human MDA-MB-231 cell growth in a cell viability assay.

[36] = tested on: K052; experiment: cells; type: functional, cell-based, Homo sapiens; details: Homo sapiens, K052;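 note: Read-out from a cell viability assay, IC50 reflecting suppression of K052 cell growth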
Description: SANGER: Inhibition of human K052 cell growth in a cell viability assay.

[37] = tested on: MeWo; experiment: cells; type: functional, cell-based; details: Homo sapiens;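 note: growth inhibition of MeWo cells, determined by a cell viability readout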
Description: SANGER: Inhibition of human Mewo cell growth in a cell viability assay.

[38] = tested on: UACC-812; experiment: cells; type: functional, cell-based; details: Homo sapiens
Description: SANGER: Inhibition of human UACC-812 cell growth in a cell viability assay.

[39] = tested on: NCI-H1694; experiment: cells; type: functional, cell-based, Homo sapiens; details: Homo sapiens, NCI-H1694;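 note: cell viability assay measuring inhibition of growth in human NCI-H1694 cells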
Description: SANGER: Inhibition of human NCI-H1694 cell growth in a cell viability assay.

[40] = tested on: SW1990; experiment: cells; type: functional, cell-based; details: Homo sapiens
Description: SANGER: Inhibition of human SW1990 cell growth in a cell viability assay.

[41] = tested on: NCI-H1755; experiment: cells; type: functional, cell-based; details: Homo sapiens;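 note: cell viability readout used to measure growth inhibition of NCI-H1755 cells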
Description: SANGER: Inhibition of human NCI-H1755 cell growth in a cell viability assay.

[42] = tested on: A2780; experiment: cells; type: functional, cell-based; details: Homo sapiens;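 note: growth inhibition of A2780 cells, read out with a cell viability assay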
Description: SANGER: Inhibition of human A2780 cell growth in a cell viability assay.

[43] = tested on: YT; experiment: cells; type: functional, cell-based, Homo sapiens; details: Homo sapiens, YT
Description: SANGER: Inhibition of human YT cell growth in a cell viability assay.

[44] = tested on: SK-N-AS; experiment: cells; type: functional, cell-based; details: Homo sapiens;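 note: growth inhibition of human SK-N-AS cells, measured with a cell viability assay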
Description: SANGER: Inhibition of human SK-N-AS cell growth in a cell viability assay.

[45] = tested on: SK-MM-2; experiment: cells; type: functional, cell-based, Homo sapiens; details: Homo sapiens, SK-MM-2;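 note: growth inhibition of human SK-MM-2 cells, read out with a cell viability assay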
Description: SANGER: Inhibition of human SK-MM-2 cell growth in a cell viability assay.

[46] = tested on: RPMI-2650; experiment: cells; type: functional, cell-based; details: Homo sapiens
Description: SANGER: Inhibition of human RPMI-2650 cell growth in a cell viability assay.

[47] = tested on: ST486; experiment: SANGER: Inhibition of human ST486 cell growth in a cell viability assay.; type: functional, cell-based; details: Homo sapiens, ST486
[48] = tested on: NCI-H1882; experiment: cells; type: functional, cell-based, Homo sapiens; details: Homo sapiens, NCI-H1882;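 note: growth inhibition of the cell line, determined with a viability assay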
Description: SANGER: Inhibition of human NCI-H1882 cell growth in a cell viability assay.

[49] = tested on: HO-1-N-1; experiment: cells; type: functional, cell-based; details: Homo sapiens;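 note: growth inhibition of human HO-1-N-1 cells, read out with a cell viability assay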
Description: SANGER: Inhibition of human HO-1-N-1 cell growth in a cell viability assay.

[50] = tested on: DBTRG-05MG; experiment: cells; type: functional, cell-based; details: Homo sapiens;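 note: cell viability assay measuring growth inhibition of human DBTRG-05MG cells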
Description: SANGER: Inhibition of human DBTRG-05MG cell growth in a cell viability assay.

[51] = tested on: HCC 2998; experiment: cells; type: functional, cell-based; details: Homo sapiens;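 note: growth inhibition of human HCC2998 cells, measured with a cell viability read-out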
Description: SANGER: Inhibition of human HCC2998 cell growth in a cell viability assay.

[52] = tested on: BEN; experiment: cells; type: functional, cell-based; details: Homo sapiens;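 note: growth inhibition of the BEN cell line, read out with a cell viability assay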
Description: SANGER: Inhibition of human BEN cell growth in a cell viability assay.

[53] = tested on: TE-15; experiment: cells; type: functional, cell-based, Homo sapiens; details: Homo sapiens, TE-15;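 note: cell viability readout of growth inhibition in TE-15 cells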
Description: SANGER: Inhibition of human TE-15 cell growth in a cell viability assay.

[54] = tested on: P31-FUJ; experiment: cells; type: functional, cell-based, Homo sapiens; details: Homo sapiens, P31-FUJ;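 note: growth inhibition of P31-FUJ cells, read out with a viability assay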
Description: SANGER: Inhibition of human P31-FUJ cell growth in a cell viability assay.

[55] = tested on: YKG-1; experiment: cells; type: functional, cell-based; details: Homo sapiens;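 note: cell growth inhibition, read out with a viability assay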
Description: SANGER: Inhibition of human YKG-1 cell growth in a cell viability assay.

[56] = tested on: HuP-T4; experiment: cells; type: functional, cell-based; details: Homo sapiens;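 note: cell viability assay measuring how much HuP-T4 cell growth is inhibited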
Description: SANGER: Inhibition of human HuP-T4 cell growth in a cell viability assay.

[57] = tested on: SW1417; experiment: cells; type: functional, cell-based; details: Homo sapiens;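 note: growth inhibition of human SW1417 cells, read out with a cell viability assay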
Description: SANGER: Inhibition of human SW1417 cell growth in a cell viability assay.

[58] = tested on: SNU-C1; experiment: cells; type: functional, cell-based, Homo sapiens; details: Homo sapiens, SNU-C1;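 note: growth inhibition of SNU-C1 human cells, read out by a cell viability assay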
Description: SANGER: Inhibition of human SNU-C1 cell growth in a cell viability assay.

[59] = tested on: GDM-1; experiment: cells; type: functional, cell-based, Homo sapiens; details: Homo sapiens, GDM-1; read-out: IC50;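 note: cell viability readout used to measure growth inhibition of human GDM-1 cells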
Description: SANGER: Inhibition of human GDM-1 cell growth in a cell viability assay.

SMILES: C/C(=C\c1csc(C)n1)[C@@H]1C[C@@H]2O[C@]2(C)CCC[C@H](C)[C@H](O)[C@@H](C)C(=O)C(C)(C)[C@@H](O)CC(=O)O1 [PATUPILONE]
- IC50 [1]: 0.928 nM
- IC50 [2]: 0.363 nM
- IC50 [3]: 13.7 nM
- IC50 [4]: > 32 nM
- IC50 [5]: 4.66 nM
- IC50 [6]: > 32 nM
- IC50 [7]: 21 nM
- IC50 [8]: 23.4 nM
- IC50 [9]: 0.689 nM
- IC50 [10]: 1.52 nM
- IC50 [11]: 1.16 nM
- IC50 [12]: 1.02 nM
- IC50 [13]: 0.753 nM
- IC50 [14]: > 32 nM
- IC50 [15]: 0.635 nM
- IC50 [16]: 2.18 nM
- IC50 [17]: 0.521 nM
- IC50 [18]: 9.27 nM
- IC50 [19]: > 32 nM
- IC50 [20]: 8.39 nM
- IC50 [21]: > 32 nM
- IC50 [22]: 1.98 nM
- IC50 [23]: > 32 nM
- IC50 [24]: > 32 nM
- IC50 [25]: 0.24 nM
- IC50 [26]: 12.8 nM
- IC50 [27]: 4.42 nM
- IC50 [28]: 2.47 nM
- IC50 [29]: 7.11 nM
- IC50 [30]: > 32 nM
- IC50 [31]: 7.95 nM
- IC50 [32]: > 32 nM
- IC50 [33]: > 32 nM
- IC50 [34]: > 32 nM
- IC50 [35]: 24.6 nM
- IC50 [36]: 5.84 nM
- IC50 [37]: > 32 nM
- IC50 [38]: > 32 nM
- IC50 [39]: > 32 nM
- IC50 [40]: > 32 nM
- IC50 [41]: > 32 nM
- IC50 [42]: 2.09 nM
- IC50 [43]: 18.7 nM
- IC50 [44]: > 32 nM
- IC50 [45]: 17.3 nM
- IC50 [46]: 2.08 nM
- IC50 [47]: 0.721 nM
- IC50 [48]: > 32 nM
- IC50 [49]: 1.66 nM
- IC50 [50]: 5.86 nM
- IC50 [51]: 1.05 nM
- IC50 [52]: 20.6 nM
- IC50 [53]: 0.225 nM
- IC50 [54]: > 32 nM
- IC50 [55]: 1.24 nM
- IC50 [56]: 2.54 nM
- IC50 [57]: > 32 nM
- IC50 [58]: > 32 nM
- IC50 [59]: 4.31 nM

SMILES: Cc1ccc(C(=O)Nc2ccc(CN3CCN(C)CC3)c(C(F)(F)F)c2)cc1C#Cc1cnc2cccnn12 [PONATINIB]
- IC50 [1]: > 512 nM
- IC50 [2]: > 512 nM
- IC50 [3]: > 512 nM
- IC50 [4]: > 512 nM
- IC50 [5]: > 512 nM
- IC50 [6]: 423 nM
- IC50 [7]: > 512 nM
- IC50 [8]: > 512 nM
- IC50 [9]: > 512 nM
- IC50 [10]: > 512 nM
- IC50 [11]: > 512 nM
- IC50 [12]: > 512 nM
- IC50 [13]: > 512 nM
- IC50 [14]: > 512 nM
- IC50 [15]: 453 nM
- IC50 [16]: 255 nM
- IC50 [17]: > 512 nM
- IC50 [18]: > 512 nM
- IC50 [19]: > 512 nM
- IC50 [20]: > 512 nM
- IC50 [21]: > 512 nM
- IC50 [22]: > 512 nM
- IC50 [23]: > 512 nM
- IC50 [24]: > 512 nM
- IC50 [25]: > 512 nM
- IC50 [26]: > 512 nM
- IC50 [27]: > 512 nM
- IC50 [28]: > 512 nM
- IC50 [29]: 278 nM
- IC50 [30]: > 512 nM
- IC50 [31]: > 512 nM
- IC50 [32]: > 512 nM
- IC50 [33]: 365 nM
- IC50 [34]: > 512 nM
- IC50 [36]: > 512 nM
- IC50 [37]: > 512 nM
- IC50 [38]: > 512 nM
- IC50 [39]: > 512 nM
- IC50 [40]: > 512 nM
- IC50 [41]: > 512 nM
- IC50 [42]: 343 nM
- IC50 [43]: 270 nM
- IC50 [44]: > 512 nM
- IC50 [45]: > 512 nM
- IC50 [46]: > 512 nM
- IC50 [47]: > 512 nM
- IC50 [48]: > 512 nM
- IC50 [49]: > 512 nM
- IC50 [50]: 381 nM
- IC50 [51]: > 512 nM
- IC50 [52]: > 512 nM
- IC50 [53]: 261 nM
- IC50 [54]: > 512 nM
- IC50 [55]: > 512 nM
- IC50 [56]: > 512 nM
- IC50 [57]: > 512 nM
- IC50 [58]: > 512 nM
- IC50 [59]: 18.3 nM
